Some test systems named below: NCI-H522 lung; MOLT-4 leukemia; ACHN renal; SK-OV-3 ovarian; T-47D breast; A549 NSCLC; OVCAR-5 ovarian; CCRF-CEM leukemia; SK-MEL-2 melanoma; UACC-257 melanoma; NCI-H226 lung.
Common to all, as to assay: NCI-60 cell line screen, 48 h

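Results reflect a 48-hour exposure of cells in 96-well plates to compound at five concentrations. Definition used: TGI = concentration required for complete inhibition of growth.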

Consider `CC1=CP(=O)(c2c(C(C)C)cc(C(C)C)cc2C(C)C)CCC1Cl` (stereo unspecified), for which the TGI in the assay with NCI-H522 lung was determined as 33.6 µM; with MOLT-4 leukemia, 49.6 µM; with ACHN renal it was 31.5 µM; in the assay with SK-OV-3 ovarian, 36.3 µM; with T-47D breast, 31.9 µM; with A549 NSCLC, 32.7 µM. For the same molecule, the TGI amounted to 32.5 µM in the assay on OVCAR-5 ovarian; 65.4 µM in the assay with CCRF-CEM leukemia; 31.4 µM in the assay on SK-MEL-2 melanoma; 24.9 µM in the assay on UACC-257 melanoma; 35.1 µM in the assay with NCI-H226 lung.
`O=C(NO)NCCCl`: the TGI in the assay on NCI-H522 lung, with MOLT-4 leukemia, in the assay with ACHN renal, with SK-OV-3 ovarian, with T-47D breast and in the assay on A549 NSCLC was > 100 µM throughout. The TGI in the assay with OVCAR-5 ovarian, in the assay on CCRF-CEM leukemia, in the assay with SK-MEL-2 melanoma, with UACC-257 melanoma and with NCI-H226 lung was > 100 µM each time.
Turning to `COc1cc(OC)c2c(c1)OC(c1cccnc1)C(c1ccccc1)C2=O` (stereo unspecified), the TGI in the assay with NCI-H522 lung, in the assay with MOLT-4 leukemia, in the assay with ACHN renal, in the assay with SK-OV-3 ovarian, with T-47D breast and with A549 NSCLC was > 100 µM throughout. Further, the TGI in the assay with OVCAR-5 ovarian, in the assay on CCRF-CEM leukemia, in the assay on SK-MEL-2 melanoma, in the assay with UACC-257 melanoma and in the assay on NCI-H226 lung was > 100 µM in each case.
As for `COC(=O)C1OC(O[C@H]2CC[C@]3(C)[C@H]4CC=C5[C@@H]6CC(C)(C)CC[C@]6(C(=O)OC6OCC(O)C(O)C6OC6OC(C)C(OC7OCC(O)C(O)C7O)C(OC7OCC(O)(CO)C7O)C6O)[C@H](O)C[C@@]5(C)[C@]4(C)CC[C@H]3C2(C)C)C(O)C(O)C1O` (stereo partly specified), the TGI in the assay on NCI-H522 lung was 5.78 µM; with MOLT-4 leukemia it was > 100 µM; with ACHN renal it was 10.1 µM; in the assay with SK-OV-3 ovarian, 24.9 µM; with T-47D breast it was 15.3 µM; with A549 NSCLC, 12.6 µM. Moreover, the TGI was 13.4 µM with OVCAR-5 ovarian; > 100 µM in the assay with CCRF-CEM leukemia; 5.82 µM with SK-MEL-2 melanoma; 11.5 µM in the assay on UACC-257 melanoma; 15.5 µM with NCI-H226 lung.
For `Cn1cc(S(=O)(=O)NC(=O)Nc2ccc(Cl)cc2)c(=O)c2ccc(F)cc21`, the TGI in the assay on NCI-H522 lung, in the assay on MOLT-4 leukemia, in the assay on ACHN renal, in the assay on SK-OV-3 ovarian, in the assay on T-47D breast and with A549 NSCLC was > 100 µM in each case. Besides, the TGI with OVCAR-5 ovarian, in the assay on CCRF-CEM leukemia, with SK-MEL-2 melanoma, with UACC-257 melanoma and in the assay with NCI-H226 lung was > 100 µM in each case.
Take `Cc1cccc(CC(Cc2ccc(C)cc2C(=O)O)C(=O)O)c1` (stereo unspecified): the TGI in the assay with NCI-H522 lung, in the assay with MOLT-4 leukemia, in the assay with ACHN renal, in the assay on SK-OV-3 ovarian, with T-47D breast and in the assay with A549 NSCLC was > 100 µM in each case. The TGI with OVCAR-5 ovarian, in the assay with CCRF-CEM leukemia, with SK-MEL-2 melanoma, in the assay with UACC-257 melanoma and in the assay on NCI-H226 lung was > 100 µM in each case.

The record behind these values is PubChem BioAssay (NCI).
